# According to ChEMBL document CHEMBL1201862, “PubChem BioAssay data set” (2004):
# The source made the active and inactive calls.
# Key:
# [1] = A cytotoxicity screen of small molecule inhibitors of the PhoP region in Salmonella typhi identified in the primary screen. [Related pubchem assays: 1850, 1864, 1985 ]; assay type: functional
# [2] = Luminescence Cell-Based Dose Response to Identify Activators of 5'UTR Stem-Loop Driven Prion Protein mRNA Translation in H4-C Neuroglioblastoma Cells. [Related pubchem assays: 1829 (Project Summary), 1814 (Primary HTS)]; assay type: functional
# [3] = Luminescence Cell-Based Dose Response HTS to Identify Activators of Luciferase Translation or Activity in H4 […] Cells. [Related pubchem assays: 1829 (Project Summary), 1814 (Primary HTS)]; assay type: functional
# H4 = test: Luminescence Cell-Based Dose Response HTS to Identify Activators of 5'UTR Stem-Loop Driven Prion Protein mRNA Translation in H4 Neuroglioblastoma Cells. [Related pubchem assays: 1829 (Project Summary), 1814 (Primary HTS)]; assay type: functional; settings: Homo sapiens
# [4] = Luminescence Cell-Based Dose Response to Identify Activators of Luciferase Translation or Activity in H4-C Neuroglioblastoma Cells. [Related pubchem assays: 1829 (Project Summary), 1814 (Primary HTS)]; assay type: functional
# [5] = Luminescence Cell-Based Dose Confirmation to Identify Activators of 5'UTR Stem-Loop Driven Alpha-Synuclein mRNA Translation in H4 Neuroglioblastoma Cells. [Related pubchem assays: 1829 (Project Summary), 1814 (Primary HTS)]; assay type: functional
# [6] = target: FAD-linked sulfhydryl oxidase ALR (Homo sapiens, UniProt P55789); test: inhibitors of human ALR sulfhydryl oxidase, dose response, biochemical, H2O2 detection, luminescence, cherry-pick (AID 493248)
# Sequence of FAD-linked sulfhydryl oxidase ALR (P55789 whole entry): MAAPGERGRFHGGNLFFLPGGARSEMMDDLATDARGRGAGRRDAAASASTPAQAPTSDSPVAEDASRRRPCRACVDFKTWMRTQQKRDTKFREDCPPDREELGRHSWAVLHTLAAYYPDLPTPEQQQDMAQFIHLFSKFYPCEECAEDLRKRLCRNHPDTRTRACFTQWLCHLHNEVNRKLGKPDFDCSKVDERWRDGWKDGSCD
# [7] = target: T1, Microphthalmia-associated transcription factor (Homo sapiens, UniProt O75030); test: TRPM1 promoter luciferase signal decrease, dose response, MITF inhibitor project, cell-based, SK-MEL-5, cherry-picked, set 3 (AID 493073); assay type: functional
# T1 sequence (O75030 whole entry): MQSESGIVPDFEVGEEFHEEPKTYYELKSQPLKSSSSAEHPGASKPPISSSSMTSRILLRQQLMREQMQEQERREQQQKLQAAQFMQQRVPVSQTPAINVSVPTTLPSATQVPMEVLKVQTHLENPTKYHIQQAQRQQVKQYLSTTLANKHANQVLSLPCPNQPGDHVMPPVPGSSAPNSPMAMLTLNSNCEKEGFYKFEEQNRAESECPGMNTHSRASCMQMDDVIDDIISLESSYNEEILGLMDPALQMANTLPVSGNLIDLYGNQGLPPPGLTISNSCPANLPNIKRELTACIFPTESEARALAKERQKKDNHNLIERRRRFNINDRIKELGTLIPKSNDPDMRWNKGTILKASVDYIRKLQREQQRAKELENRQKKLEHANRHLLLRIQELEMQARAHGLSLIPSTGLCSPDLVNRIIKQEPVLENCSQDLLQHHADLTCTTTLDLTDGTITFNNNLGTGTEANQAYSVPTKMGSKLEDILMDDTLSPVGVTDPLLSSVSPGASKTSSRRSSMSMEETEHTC
# Paired box protein Pax-8 = Paired box protein Pax-8 (Homo sapiens, UniProt Q06710); test: inhibitors of PAX8-driven TPO luciferase reporter, dose response, RMG-I cells, cherry-pick (AID 687027); assay type: functional, cell-based;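 note: luciferase reporter driven by Pax8 target thyroperoxidase promoter measured by SteadyGlo luminescence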
# Sequence of Paired box protein Pax-8 (Q06710 whole entry): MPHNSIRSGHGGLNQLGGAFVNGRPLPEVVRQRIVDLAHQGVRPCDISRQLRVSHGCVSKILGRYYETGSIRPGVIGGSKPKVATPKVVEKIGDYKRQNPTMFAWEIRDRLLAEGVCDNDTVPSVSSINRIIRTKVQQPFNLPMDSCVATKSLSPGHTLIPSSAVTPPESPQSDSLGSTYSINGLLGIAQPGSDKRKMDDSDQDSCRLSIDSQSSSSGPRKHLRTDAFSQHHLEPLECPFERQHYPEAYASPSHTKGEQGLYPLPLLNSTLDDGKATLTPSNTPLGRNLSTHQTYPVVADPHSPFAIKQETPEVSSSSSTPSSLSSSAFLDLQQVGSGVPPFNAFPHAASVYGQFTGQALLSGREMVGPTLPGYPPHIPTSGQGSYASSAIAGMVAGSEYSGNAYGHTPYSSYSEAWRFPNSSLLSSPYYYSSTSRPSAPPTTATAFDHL
# Beta-galactosidase = Beta-galactosidase (Escherichia coli, UniProt Q8VNN2); test: beta-galactosidase enzyme inhibitors and activators, dose response, artefact control for CCR6 antagonist project, biochemical, E. coli enzyme, set 3 (AID 504712); assay type: functional
# Genome polyprotein = Genome polyprotein (dengue virus type 2, UniProt P29990); test: Dengue-2 NS5 methyltransferase inhibitors, primary screen, biochemical, confirmation dose response (AID 588689); assay type: functional
# [8] = target: Peroxisome proliferator-activated receptor gamma/Nuclear receptor corepressor 2 (Homo sapiens, UniProt P37231+Q9Y618); test: Counterscreen for NR2E3 inverse agonists: TR-FRET-based biochemical high throughput dose response assay to identify inverse agonists of the interaction between peroxisome proliferator-activated receptor gamma (PPARg) and nuclear receptor co-repressor 2 (NCOR2).; assay type: functional
# Sequence of Peroxisome proliferator-activated receptor gamma/Nuclear receptor corepressor 2 (P37231 whole entry): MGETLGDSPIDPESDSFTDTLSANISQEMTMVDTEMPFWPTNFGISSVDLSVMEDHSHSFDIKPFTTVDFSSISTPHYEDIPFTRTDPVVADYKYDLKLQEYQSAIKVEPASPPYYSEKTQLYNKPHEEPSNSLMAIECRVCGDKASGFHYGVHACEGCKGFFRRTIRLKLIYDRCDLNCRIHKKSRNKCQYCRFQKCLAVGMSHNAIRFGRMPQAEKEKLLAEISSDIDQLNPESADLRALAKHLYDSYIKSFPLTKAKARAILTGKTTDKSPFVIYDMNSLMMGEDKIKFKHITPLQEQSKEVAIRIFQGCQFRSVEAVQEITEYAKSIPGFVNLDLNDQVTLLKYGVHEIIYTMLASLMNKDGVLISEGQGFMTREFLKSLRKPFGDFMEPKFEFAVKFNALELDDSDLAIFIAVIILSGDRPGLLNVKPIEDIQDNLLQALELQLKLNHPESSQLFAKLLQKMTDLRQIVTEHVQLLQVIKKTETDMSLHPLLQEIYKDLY
# Sequence of Peroxisome proliferator-activated receptor gamma/Nuclear receptor corepressor 2 (Q9Y618 whole entry): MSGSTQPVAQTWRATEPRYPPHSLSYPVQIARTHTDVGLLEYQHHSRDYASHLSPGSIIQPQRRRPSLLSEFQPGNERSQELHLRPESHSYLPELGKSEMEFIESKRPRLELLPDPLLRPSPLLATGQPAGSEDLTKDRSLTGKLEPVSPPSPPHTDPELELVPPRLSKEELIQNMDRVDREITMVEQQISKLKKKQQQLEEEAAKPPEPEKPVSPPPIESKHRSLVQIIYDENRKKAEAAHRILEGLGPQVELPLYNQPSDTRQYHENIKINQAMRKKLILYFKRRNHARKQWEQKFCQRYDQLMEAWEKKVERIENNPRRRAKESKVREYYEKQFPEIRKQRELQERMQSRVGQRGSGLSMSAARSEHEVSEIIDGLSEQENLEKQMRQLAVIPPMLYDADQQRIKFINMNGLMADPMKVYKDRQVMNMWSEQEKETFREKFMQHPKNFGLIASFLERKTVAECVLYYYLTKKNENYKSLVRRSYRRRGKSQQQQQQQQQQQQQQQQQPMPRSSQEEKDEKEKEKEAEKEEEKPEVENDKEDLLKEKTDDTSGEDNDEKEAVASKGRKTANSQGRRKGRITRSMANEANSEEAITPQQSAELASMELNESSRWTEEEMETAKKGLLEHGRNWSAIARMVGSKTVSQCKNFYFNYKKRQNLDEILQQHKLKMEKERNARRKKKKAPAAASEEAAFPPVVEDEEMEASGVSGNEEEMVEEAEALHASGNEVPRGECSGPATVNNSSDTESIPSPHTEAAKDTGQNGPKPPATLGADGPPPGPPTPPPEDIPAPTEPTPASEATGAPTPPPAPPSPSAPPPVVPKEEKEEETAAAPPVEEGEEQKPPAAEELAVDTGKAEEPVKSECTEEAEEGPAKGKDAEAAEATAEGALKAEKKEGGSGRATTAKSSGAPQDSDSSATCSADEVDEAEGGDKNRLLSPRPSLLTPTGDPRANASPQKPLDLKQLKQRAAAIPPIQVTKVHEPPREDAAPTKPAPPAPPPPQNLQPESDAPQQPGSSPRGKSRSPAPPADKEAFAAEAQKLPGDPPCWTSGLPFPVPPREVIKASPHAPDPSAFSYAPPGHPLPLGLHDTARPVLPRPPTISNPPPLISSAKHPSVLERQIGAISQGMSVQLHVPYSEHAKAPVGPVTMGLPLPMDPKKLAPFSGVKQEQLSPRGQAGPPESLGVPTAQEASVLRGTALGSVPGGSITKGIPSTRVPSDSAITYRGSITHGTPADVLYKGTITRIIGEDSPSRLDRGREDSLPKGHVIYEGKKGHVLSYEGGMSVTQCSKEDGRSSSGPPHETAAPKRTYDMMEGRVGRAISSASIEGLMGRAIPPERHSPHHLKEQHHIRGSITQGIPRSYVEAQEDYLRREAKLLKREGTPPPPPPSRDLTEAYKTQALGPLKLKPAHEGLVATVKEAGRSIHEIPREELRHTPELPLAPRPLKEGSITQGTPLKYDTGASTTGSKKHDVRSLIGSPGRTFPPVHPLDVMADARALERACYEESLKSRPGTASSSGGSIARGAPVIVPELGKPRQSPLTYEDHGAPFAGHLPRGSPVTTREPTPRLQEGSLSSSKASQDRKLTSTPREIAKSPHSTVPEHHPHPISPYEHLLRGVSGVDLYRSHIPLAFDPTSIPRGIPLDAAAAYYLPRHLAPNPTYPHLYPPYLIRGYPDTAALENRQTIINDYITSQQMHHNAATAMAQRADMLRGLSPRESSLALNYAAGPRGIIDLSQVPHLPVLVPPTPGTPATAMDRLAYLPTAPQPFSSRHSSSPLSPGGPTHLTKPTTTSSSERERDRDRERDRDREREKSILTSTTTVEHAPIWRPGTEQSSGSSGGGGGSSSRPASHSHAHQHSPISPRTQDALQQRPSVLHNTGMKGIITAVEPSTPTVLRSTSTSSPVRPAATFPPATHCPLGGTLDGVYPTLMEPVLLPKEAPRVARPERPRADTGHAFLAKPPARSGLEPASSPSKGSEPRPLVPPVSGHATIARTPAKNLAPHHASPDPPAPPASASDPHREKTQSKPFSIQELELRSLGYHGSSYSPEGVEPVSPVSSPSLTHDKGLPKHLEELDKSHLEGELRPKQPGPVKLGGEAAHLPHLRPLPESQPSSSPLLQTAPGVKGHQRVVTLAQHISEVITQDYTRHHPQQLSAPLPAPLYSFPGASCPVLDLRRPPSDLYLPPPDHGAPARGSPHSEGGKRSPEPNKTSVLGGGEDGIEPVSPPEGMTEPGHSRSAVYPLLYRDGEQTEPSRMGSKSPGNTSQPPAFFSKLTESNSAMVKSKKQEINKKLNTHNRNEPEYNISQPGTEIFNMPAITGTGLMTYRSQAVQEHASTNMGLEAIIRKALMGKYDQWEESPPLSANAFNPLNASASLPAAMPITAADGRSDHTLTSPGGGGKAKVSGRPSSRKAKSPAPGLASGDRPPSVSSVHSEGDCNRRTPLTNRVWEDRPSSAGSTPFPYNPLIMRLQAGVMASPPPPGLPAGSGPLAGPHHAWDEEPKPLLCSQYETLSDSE
# [9] = target: Photoreceptor-specific nuclear receptor (Homo sapiens, UniProt Q9Y5X4); test: NR2E3 inverse agonists, dose response, biochemical, TR-FRET (AID 463256); assay type: functional
# Sequence of Photoreceptor-specific nuclear receptor (Q9Y5X4 whole entry): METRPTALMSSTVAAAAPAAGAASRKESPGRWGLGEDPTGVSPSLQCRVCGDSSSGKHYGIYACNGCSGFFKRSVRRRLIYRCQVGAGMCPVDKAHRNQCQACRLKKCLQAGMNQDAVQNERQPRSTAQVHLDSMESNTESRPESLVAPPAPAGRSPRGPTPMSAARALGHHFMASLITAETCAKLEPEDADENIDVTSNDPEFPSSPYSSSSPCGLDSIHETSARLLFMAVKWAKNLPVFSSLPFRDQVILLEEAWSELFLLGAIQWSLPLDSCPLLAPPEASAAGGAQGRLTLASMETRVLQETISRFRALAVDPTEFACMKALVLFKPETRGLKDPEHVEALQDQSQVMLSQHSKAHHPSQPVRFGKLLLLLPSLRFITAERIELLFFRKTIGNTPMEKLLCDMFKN
# [10] = growth suppression of PTEN-null colon cells, dose response, cell-based, HCT116 PTEN knockout (AID 1047); assay type: functional;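 note: HCT116 colon tumor cells with PTEN knocked out; cells exposed to compound for 60 hours before readout; potency for loss of cell viability measured by luminescence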
# [11] = growth suppression of beta-catenin-knockout colon cells, dose response, cell-based, HCT116, human colon tumor (AID 1045); assay type: functional;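 note: HCT116 colon tumor cells with beta catenin knocked out; cells exposed to compound for 60 hours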
# [12] = target: T2, Replicative DNA helicase DnaB (Mycobacterium tuberculosis, UniProt P9WMR3); test: DnaB intein splicing inhibitors, dose response, biochemical, cell-free fluorescence (AID 449749); assay type: functional
# T2 sequence (P9WMR3 whole entry): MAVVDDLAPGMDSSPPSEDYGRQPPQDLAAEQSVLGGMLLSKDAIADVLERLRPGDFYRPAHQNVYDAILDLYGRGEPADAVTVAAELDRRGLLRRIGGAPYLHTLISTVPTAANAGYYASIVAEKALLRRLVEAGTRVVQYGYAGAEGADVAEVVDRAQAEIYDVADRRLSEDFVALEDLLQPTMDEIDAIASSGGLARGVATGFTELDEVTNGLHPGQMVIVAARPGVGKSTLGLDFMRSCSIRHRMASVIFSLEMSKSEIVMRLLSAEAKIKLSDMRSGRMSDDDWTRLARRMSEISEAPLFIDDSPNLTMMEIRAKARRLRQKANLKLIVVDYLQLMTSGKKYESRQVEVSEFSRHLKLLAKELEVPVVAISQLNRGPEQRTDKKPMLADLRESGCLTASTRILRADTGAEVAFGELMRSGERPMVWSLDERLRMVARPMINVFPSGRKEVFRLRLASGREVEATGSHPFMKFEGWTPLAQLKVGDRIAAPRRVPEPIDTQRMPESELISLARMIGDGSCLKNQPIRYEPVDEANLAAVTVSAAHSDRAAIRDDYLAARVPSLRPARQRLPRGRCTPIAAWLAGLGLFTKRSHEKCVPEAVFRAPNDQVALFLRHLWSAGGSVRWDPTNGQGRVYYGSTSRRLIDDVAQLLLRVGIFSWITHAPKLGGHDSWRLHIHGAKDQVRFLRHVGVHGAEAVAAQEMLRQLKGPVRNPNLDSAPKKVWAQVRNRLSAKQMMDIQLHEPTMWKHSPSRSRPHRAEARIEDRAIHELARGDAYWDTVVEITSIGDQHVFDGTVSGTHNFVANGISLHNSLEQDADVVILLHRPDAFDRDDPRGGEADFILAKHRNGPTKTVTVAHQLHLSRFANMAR
# Protein RecA = target: T3, Protein RecA (Mycobacterium tuberculosis, UniProt P9WHJ3); test: Fluorescence Cell-Free Homogeneous Dose Retest to Identify Inhibitors of RecA-Intein Splicing Activity. [Related pubchem assays (depositor defined):AID2097, AID2223, AID489010, AID492950]; assay type: functional
# T3 sequence (P9WHJ3 whole entry): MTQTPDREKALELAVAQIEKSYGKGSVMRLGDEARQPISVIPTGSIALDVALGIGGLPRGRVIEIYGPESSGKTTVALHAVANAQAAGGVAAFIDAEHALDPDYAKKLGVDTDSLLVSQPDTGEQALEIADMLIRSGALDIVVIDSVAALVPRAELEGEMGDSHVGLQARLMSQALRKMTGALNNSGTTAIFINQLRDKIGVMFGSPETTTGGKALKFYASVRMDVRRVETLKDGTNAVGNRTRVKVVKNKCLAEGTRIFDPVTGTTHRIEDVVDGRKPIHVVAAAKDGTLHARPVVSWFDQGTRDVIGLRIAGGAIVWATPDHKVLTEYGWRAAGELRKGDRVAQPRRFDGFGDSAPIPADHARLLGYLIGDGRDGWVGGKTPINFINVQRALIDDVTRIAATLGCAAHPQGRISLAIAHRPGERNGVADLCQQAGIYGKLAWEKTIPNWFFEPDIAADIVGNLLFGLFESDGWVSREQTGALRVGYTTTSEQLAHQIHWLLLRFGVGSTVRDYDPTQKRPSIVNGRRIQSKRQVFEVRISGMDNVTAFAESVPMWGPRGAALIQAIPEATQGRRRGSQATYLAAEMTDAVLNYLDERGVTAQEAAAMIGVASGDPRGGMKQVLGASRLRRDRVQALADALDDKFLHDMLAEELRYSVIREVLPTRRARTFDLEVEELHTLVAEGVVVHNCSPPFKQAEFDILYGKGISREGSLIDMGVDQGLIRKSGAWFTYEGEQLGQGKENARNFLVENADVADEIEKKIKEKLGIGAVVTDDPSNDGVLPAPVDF
# Cytochrome P450 2D6 = Cytochrome P450 2D6 (Homo sapiens, UniProt P10635);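 note: CYP2D6 member of a cytochrome P450 panel assay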
# Sequence of Cytochrome P450 2D6 (P10635 whole entry): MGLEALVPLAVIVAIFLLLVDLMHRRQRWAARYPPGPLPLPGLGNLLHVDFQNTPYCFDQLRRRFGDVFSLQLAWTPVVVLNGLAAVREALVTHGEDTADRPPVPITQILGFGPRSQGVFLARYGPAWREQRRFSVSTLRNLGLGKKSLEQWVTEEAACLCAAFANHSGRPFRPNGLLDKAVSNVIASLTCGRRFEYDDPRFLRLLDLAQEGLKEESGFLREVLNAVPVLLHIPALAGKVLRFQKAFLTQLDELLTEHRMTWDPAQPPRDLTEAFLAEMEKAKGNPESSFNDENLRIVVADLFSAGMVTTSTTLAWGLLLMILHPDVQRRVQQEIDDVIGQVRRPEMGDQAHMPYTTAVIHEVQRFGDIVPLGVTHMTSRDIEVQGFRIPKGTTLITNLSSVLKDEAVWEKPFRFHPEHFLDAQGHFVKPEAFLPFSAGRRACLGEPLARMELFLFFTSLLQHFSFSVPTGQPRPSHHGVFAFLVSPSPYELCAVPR
# Trypsin = Trypsin (Sus scrofa, UniProt P00761); test: porcine trypsin inhibitors, dose response, selectivity assay for Rce1 protease inhibitor project, biochemical, quenched peptide fluorescence, cherry-pick (AID 488789)
# Sequence of Trypsin (P00761 whole entry): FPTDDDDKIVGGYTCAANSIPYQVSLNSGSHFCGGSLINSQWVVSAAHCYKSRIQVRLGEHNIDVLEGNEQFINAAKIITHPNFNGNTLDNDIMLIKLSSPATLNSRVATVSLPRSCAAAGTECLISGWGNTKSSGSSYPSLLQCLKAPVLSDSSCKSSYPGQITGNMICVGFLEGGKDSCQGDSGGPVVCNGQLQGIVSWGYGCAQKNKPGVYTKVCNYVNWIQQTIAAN
# [13] = inhibitors of intracellular T. cruzi replication, confirmation, NIH3T3 host cells, beta-gal luminescence (AID 2044); assay type: functional, cell-based;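 note: intracellular parasites grown in NIH/3T3 mouse fibroblasts as host cells; luminescent beta-galactosidase reporter signal from transgenic T. cruzi replicating inside host cells; inhibitors lower the luminescence signal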
# [14] = cytotoxicity toward NIH3T3 fibroblasts, dose response, counter-screen, cell-based, ATP luminescence, mouse fibroblasts (AID 2010); assay type: functional;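 note: cells exposed to compound for about 90 hours before reading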
# [15] = THP-1 cell cytotoxicity, dose response, cytotoxicity control for Vif-APOBEC3G degradation inhibitor project, THP-1 cells (AID 1117359); assay type: functional; settings: Human immunodeficiency virus 1, THP-1
compound,measurement,setting,value
Cc1ccccc1C(=O)c1cccn1CC(=O)NCCC1=CCCCC1,EC50,[1],> 50 µM (active)
CSc1nc(-c2ccc(Cl)cc2)c[nH]1,EC50,[2],2.01 µM (active)
same,EC50,[3],0.284 µM (active)
same,EC50,H4,< 0.1 µM (active)
same,EC50,[4],0.276 µM (active)
same,EC50,[5],0.386 µM (active)
same,AC50,[6],2.02 µM (active)
Cc1ccc(NC(=O)c2ccc([N+](=O)[O-])s2)cc1S(=O)(=O)N1CCOCC1,AC50,[7],3.78 µM (active)
same,AC50,Paired box protein Pax-8,3.94 µM (active)
CN(C)c1c([N+](=O)[O-])cc(N2C(=O)C=CC2=O)cc1[N+](=O)[O-],IC50,Beta-galactosidase,> 66.6 µM (inactive)
same,IC50,Genome polyprotein,11.1 µM (active)
Nc1nn2cc(-c3ccccc3)nc2c2ccccc12,EC50,[1],> 50 µM (active)
CCOc1cnn(Cc2ccccc2)c(=O)c1SCc1ccccc1,IC50,[8],> 39.8 µM (not active)
same,IC50,[9],15.5 µM (not active)
O=C(CCl)N(c1ccccc1)c1c[nH]c2ccccc12,EC50,[10],3.78 µM (active)
same,EC50,[11],3.3 µM (active)
same,AC50,[7],5.09 µM (active)
same,AC50,[12],8.51 µM (active)
same,EC50,Protein RecA,0.361 µM (active)
CC(=O)COC(=O)CCc1nc2ccccc2nc1O,AC50,Cytochrome P450 2D6,inconclusive
CCS(=O)(=O)Nc1c(C(=O)O)[nH]c2ccccc12,AC50,Trypsin,> 100 µM (inactive)
same,AC50,[6],0.6 µM (active)
CC/N=c1\scc(C)n1/N=C/c1ccsc1,EC50,[2],0.66 µM (active)
same,EC50,[3],16.6 µM (active)
same,EC50,H4,11.1 µM (active)
same,EC50,[4],0.582 µM (active)
same,EC50,[5],1.08 µM (active)
COc1ccc2oc(C(=O)Nc3ccc(S(=O)(=O)N(C)C4CCN(C)CC4)cc3)c(C)c2c1,EC50,[13],0.17 µM (active)
same,EC50,[14],9.46 µM (active)
same,AC50,[7],13 µM (active)
COc1cc(OC)c2ccc(=O)oc2c1C(CCN1CCCC(C)C1)c1ccc2c(c1)OCO2 (stereo unspecified),CC50,[15],> 40 µM (active)
